{
  "source": "patent USRE39056E1",
  "about": "“4-Azasteroids for treatment of hyperandrogenic conditions” (Merck & Co, Inc., priority 1995, dated 2006)",
  "key": {"type 2 5α-reductase": {"target": "T1, type 2 5α-reductase (Homo sapiens, UniProt P31213)", "T1 construct": "Preparation of Human Prostatic and Scalp 5α-reductases; from tissue; host or cells: human prostate (crude nuclear pellet of the homogenate)", "T1 sequence (P31213 1-254)": "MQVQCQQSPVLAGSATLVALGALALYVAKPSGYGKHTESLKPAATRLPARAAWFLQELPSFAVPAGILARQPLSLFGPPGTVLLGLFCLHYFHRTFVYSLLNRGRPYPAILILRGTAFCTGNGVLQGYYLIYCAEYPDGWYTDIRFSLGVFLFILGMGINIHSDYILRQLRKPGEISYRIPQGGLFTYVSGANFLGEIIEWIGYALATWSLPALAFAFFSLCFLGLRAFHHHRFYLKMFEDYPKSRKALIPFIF", "assay": "5α-reductase assay, type 2 (human prostatic homogenate), inhibition studies", "format": "biochemical", "experimental": "(§1) Samples of human tissue were pulverized using a freezer mill and homogenized in 40 mM potassium phosphate, pH 6.5, 5 mM magnesium sulfate, 25 mM potassium chloride, 1 mM phenylmethyl-sulfonyl fluoride, 1 mM dithiothreitol (DTT) containing 0.25 M sucrose using a Potter-Elvehjem homogenizer. A crude nuclear pellet was prepared by centrifugation of the homogenate at 1,500× G for 15 min. The crude nuclear pellet was washed two times and resuspended in two volumes of buffer. Glycerol was added to the resuspended pellet to a final concentration of 20%. The enzyme suspension was frozen in aliquots at −80° C.\n(§2) The reaction mixture for the type 1 5α-reductase contained 40 mM potassium phosphate, pH 6.5, […] [7-^3H]-testosterone, 1 mM dithiothreitol and 500 μM NADPH in a final volume of 100 μL. The reaction mixture for the type 2 5α-reductase contained 40 mM sodium citrate, pH 5.5 0.3 mM [7-^3H]-testosterone, 1 mM dithiothreitol and 500 μM NADPH in a final volume of 100 μL. Typically, the assay was initiated by the addition of 50-100 μg prostatic homogenate or 75-200 μg scalp homogenate and incubated at 37° C. After 10-50 min. the reaction was quenched by extraction with 250 μL of a mixture of 70% cyclohexane: 30% ethyl acetate containing 10 μg each DHT and T. The aqueous and organic layers were separated by centrifugation at 14,000 rpm in an Eppendorf microfuge. The organic layer was subjected to normal phase HPLC (10 cm Whatman partisil 5 silica column established in 1 ml/min 70% cyclohexane: 30% ethyl acetate; retention times: DHT, 6.8-7.2 min.; androstanediol, 7.6-8.0 min.; T, 9.1-9.7 min.). […] The conversion of T to DHT was monitored using the radioactivity flow detector by mixing the HPLC effluent with one volume of Flo Scint 1 (Radiomatic).\n(§3) Compounds were dissolved in 100% ethanol. The compound to be tested was pre-incubated with the enzyme (either 5α-reductase type 1 or 2) prior to initiation by addition of substrate testosterone. […] Representative compounds of this invention were tested in the above described assay for 5α-reductase type 1 and type 2 inhibition."}, "type 1 5α-reductase": {"target": "T2, type 1 5α-reductase (Homo sapiens, UniProt P18405)", "T2 construct": "Preparation of Human Prostatic and Scalp 5α-reductases; from tissue; host or cells: human scalp (crude nuclear pellet of the homogenate)", "T2 sequence (P18405 1-259)": "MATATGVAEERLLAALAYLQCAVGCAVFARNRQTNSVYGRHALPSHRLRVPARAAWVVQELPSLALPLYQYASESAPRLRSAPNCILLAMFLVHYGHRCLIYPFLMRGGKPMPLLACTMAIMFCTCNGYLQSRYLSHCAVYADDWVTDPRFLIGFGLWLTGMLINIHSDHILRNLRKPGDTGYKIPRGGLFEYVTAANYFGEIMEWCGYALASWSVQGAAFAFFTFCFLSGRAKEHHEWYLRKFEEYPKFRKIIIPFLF", "assay": "5α-reductase assay, type 1 (human scalp homogenate), inhibition studies", "format": "biochemical", "experimental": "as §1, §2, §3"}, "human androgen receptor": {"target": "T3, human androgen receptor (Homo sapiens, UniProt P10275)", "T3 sequence (P10275 1-920)": "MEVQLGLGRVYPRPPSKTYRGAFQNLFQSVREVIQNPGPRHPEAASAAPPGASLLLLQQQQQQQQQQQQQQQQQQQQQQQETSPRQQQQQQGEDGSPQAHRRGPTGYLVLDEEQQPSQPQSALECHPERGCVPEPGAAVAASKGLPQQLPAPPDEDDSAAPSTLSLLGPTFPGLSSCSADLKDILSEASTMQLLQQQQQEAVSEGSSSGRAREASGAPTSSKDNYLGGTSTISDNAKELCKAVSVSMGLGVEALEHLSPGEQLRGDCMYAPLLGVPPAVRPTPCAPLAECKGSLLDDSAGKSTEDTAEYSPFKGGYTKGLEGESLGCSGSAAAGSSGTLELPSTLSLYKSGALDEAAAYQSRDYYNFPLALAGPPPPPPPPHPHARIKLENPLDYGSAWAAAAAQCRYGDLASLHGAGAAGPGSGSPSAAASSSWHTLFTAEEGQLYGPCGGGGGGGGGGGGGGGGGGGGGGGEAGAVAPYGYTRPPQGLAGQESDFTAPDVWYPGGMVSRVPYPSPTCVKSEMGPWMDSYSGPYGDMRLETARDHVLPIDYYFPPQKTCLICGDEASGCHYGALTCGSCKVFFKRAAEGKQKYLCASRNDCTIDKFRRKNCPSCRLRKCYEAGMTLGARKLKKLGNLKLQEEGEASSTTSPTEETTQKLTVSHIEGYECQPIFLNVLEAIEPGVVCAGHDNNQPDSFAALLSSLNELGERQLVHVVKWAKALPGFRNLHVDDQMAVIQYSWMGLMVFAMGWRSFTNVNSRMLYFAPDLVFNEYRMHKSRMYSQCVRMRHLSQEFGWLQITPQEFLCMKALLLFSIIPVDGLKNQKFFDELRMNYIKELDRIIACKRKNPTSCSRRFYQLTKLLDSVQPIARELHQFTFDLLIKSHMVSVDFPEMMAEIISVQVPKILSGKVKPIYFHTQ", "assay": "Human androgen receptor activity assay (anti-androgen activity, hAR)", "format": "binding"}, "[1]": {"conditions": "human, anti-androgen activity, read-out: IC50 hAR"}, "[2]": {"conditions": "human, conversion of testosterone to DHT, pH 5.5, read-out: IC50 Type 2 5aR"}, "[3]": {"conditions": "human, conversion of testosterone to DHT, pH 6.5, read-out: IC50 Type 1 5aR"}},
  "note": "Like-named read-outs stand apart in the source and are kept apart here.",
  "data": [
    {"smiles": "COc1ccccc1NC(=O)[C@H]1CC[C@H]2[C@@H]3CC[C@H]4N(C)C(=O)C=C[C@]4(C)[C@H]3CC[C@]12C", "note": "[Example 2, N-(2-methoxyphenyl)-3-oxo-4-aza-4-methyl-5α-androst-1-ene-17β-carboxamide]", "values": [
      {"measurement": "IC50", "setting": "type 2 5α-reductase", "result": 100, "unit": "nM"},
      {"measurement": "IC50", "setting": "type 1 5α-reductase", "result": 20, "unit": "nM"},
      {"measurement": "IC50", "setting": "human androgen receptor", "result": 40, "unit": "nM"}
    ]},
    {"smiles": "CN1C(=O)C=C[C@]2(C)[C@H]3CC[C@]4(C)[C@@H](C(=O)Nc5ccc(Cl)cc5)CC[C@H]4[C@@H]3CC[C@@H]12", "note": "[Example 1, N-(4-chlorophenyl)-3-oxo-4-methyl-4-aza-5α-androst-1-ene-17β-carboxamide]", "values": [
      {"measurement": "IC50", "setting": "type 2 5α-reductase", "result": 100, "unit": "nM"},
      {"measurement": "IC50", "setting": "type 1 5α-reductase", "result": 40, "unit": "nM"},
      {"measurement": "IC50", "setting": "human androgen receptor; [1]", "result": 10, "unit": "nM"}
    ]},
    {"smiles": "CN1C(=O)C=C[C@]2(C)[C@H]3CC[C@]4(C)[C@@H](C(=O)NC(c5ccccc5)c5ccccc5)CC[C@H]4[C@@H]3CC[C@@H]12", "note": "[Example 10, N-(diphenylmethyl)-4-methyl-3-oxo-4-aza-5α-androst-1-ene-17-β-carboxamide]", "values": [
      {"measurement": "IC50", "setting": "type 2 5α-reductase; [2]", "result": 2, "unit": "nM"},
      {"measurement": "IC50", "setting": "type 1 5α-reductase; [3]", "result": 20, "unit": "nM"},
      {"measurement": "IC50", "setting": "human androgen receptor; [1]", "result": 40, "unit": "nM"}
    ]},
    {"smiles": "CN(C(=O)[C@H]1CC[C@H]2[C@@H]3CC[C@H]4N(C)C(=O)C=C[C@]4(C)[C@H]3CC[C@]12C)C(c1ccccc1)c1ccccc1", "note": "[Example 11, N-(diphenylmethyl)-N-(methyl)-4-methyl-3-oxo4-aza-5α-androst-1-ene-17-β-carboxamide]", "values": [
      {"measurement": "IC50", "setting": "type 2 5α-reductase; [2]", "result": 0.3, "unit": "nM"},
      {"measurement": "IC50", "setting": "type 1 5α-reductase; [3]", "result": 3, "unit": "nM"},
      {"measurement": "IC50", "setting": "human androgen receptor; [1]", "result": 850, "unit": "nM"}
    ]},
    {"smiles": "Cc1ccccc1NC(=O)[C@H]1CC[C@H]2[C@@H]3CC[C@H]4N(C)C(=O)C=C[C@]4(C)[C@H]3CC[C@]12C", "note": "[Example 5, N-(2-methylphenyl)-3-oxo-4-aza-4-methyl-5α-androst-1-ene-17β-carboxamide]", "values": [
      {"measurement": "IC50", "setting": "type 2 5α-reductase", "result": 20, "unit": "nM"},
      {"measurement": "IC50", "setting": "type 1 5α-reductase", "result": 20, "unit": "nM"},
      {"measurement": "IC50", "setting": "human androgen receptor", "result": 30, "unit": "nM"}
    ]},
    {"smiles": "CN1C(=O)C=C[C@]2(C)[C@H]3CC[C@]4(C)[C@@H](C(=O)Nc5ccccc5C(F)(F)F)CC[C@H]4[C@@H]3CC[C@@H]12", "note": "[Example 4, N-(2-trifluoromethyl-phenyl)-3-oxo-4-aza-4-methyl-5α-androst-1-ene-17β-carboxamide]", "values": [
      {"measurement": "IC50", "setting": "type 2 5α-reductase", "result": 7, "unit": "nM"},
      {"measurement": "IC50", "setting": "type 1 5α-reductase", "result": 2, "unit": "nM"},
      {"measurement": "IC50", "setting": "human androgen receptor", "result": 30, "unit": "nM"}
    ]},
    {"smiles": "CN1C(=O)C=C[C@]2(C)[C@H]3CC[C@]4(C)[C@@H](C(=O)Nc5cc(C(F)(F)F)ccc5C(F)(F)F)CC[C@H]4[C@@H]3CC[C@@H]12", "note": "[Example 7, N-(2,5-bistrifluoromethyl-phenyl)-3-oxo-4-aza-4-methyl-5α-androst-1-ene-17β-carboxamide]", "values": [
      {"measurement": "IC50", "setting": "type 2 5α-reductase", "result": 20, "unit": "nM"},
      {"measurement": "IC50", "setting": "type 1 5α-reductase", "result": 4, "unit": "nM"},
      {"measurement": "IC50", "setting": "human androgen receptor", "result": 20, "unit": "nM"}
    ]},
    {"smiles": "CN1C(=O)C=C[C@]2(C)[C@H]3CC[C@]4(C)[C@@H](C(=O)Nc5ccccc5F)CC[C@H]4[C@@H]3CC[C@@H]12", "note": "[Example 3, N-(2-fluorophenyl)-3-oxo-4-aza-4-methyl-5α-androst-1-ene-17β-carboxamide]", "values": [
      {"measurement": "IC50", "setting": "type 2 5α-reductase", "result": 60, "unit": "nM"},
      {"measurement": "IC50", "setting": "type 1 5α-reductase", "result": 20, "unit": "nM"},
      {"measurement": "IC50", "setting": "human androgen receptor", "result": 9, "unit": "nM"}
    ]},
    {"smiles": "CN1C(=O)C=C[C@]2(C)[C@H]3CC[C@]4(C)[C@@H](C(=O)Nc5ccccc5Cl)CC[C@H]4[C@@H]3CC[C@@H]12", "note": "[Example 6, N-(2-chlorophenyl)-3-oxo-4-aza-4-methyl-5α-androst-1-ene-17β-carboxamide]", "values": [
      {"measurement": "IC50", "setting": "type 2 5α-reductase", "result": 10, "unit": "nM"},
      {"measurement": "IC50", "setting": "type 1 5α-reductase", "result": 6, "unit": "nM"},
      {"measurement": "IC50", "setting": "human androgen receptor", "result": 8, "unit": "nM"}
    ]}
  ]
}
